The source of these data is article PMC5908784, “Extracellular loops 2 and 3 of the calcitonin receptor selectively modify agonist binding and efficacy” (Biochemical Pharmacology, 2018).

Each structure is given as a SMILES string. Substitutions are numbered along the chain they refer to. Where a SMILES comes first, the peptide text is derived from it. Bridges are numbered along the chain shown (N, C = ends).

One experiment concerns the target T1, hCTR C289A (Homo sapiens, UniProt P30988, C289A).
T1 construct: c-Myc (N); expressed in transfected cells
T1 sequence (P30988 25-474 C289A): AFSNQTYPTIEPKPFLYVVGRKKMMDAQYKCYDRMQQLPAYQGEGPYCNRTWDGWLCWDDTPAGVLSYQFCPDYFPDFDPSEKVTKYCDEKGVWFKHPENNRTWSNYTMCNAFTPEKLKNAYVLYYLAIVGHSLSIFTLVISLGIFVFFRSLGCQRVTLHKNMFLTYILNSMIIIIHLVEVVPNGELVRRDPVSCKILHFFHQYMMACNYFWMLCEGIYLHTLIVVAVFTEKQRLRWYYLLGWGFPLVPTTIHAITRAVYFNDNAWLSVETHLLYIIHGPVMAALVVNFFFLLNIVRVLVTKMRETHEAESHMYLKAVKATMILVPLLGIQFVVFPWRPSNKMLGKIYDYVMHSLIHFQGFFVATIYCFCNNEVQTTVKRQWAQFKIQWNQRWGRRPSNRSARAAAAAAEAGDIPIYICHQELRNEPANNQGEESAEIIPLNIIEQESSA
The experiment in a line: IP1 accumulation. The format is cell-based. The following applies: IP1 maximal response, mean ± S.E.M., SEM. Put shortly:
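Concentration-response curves were fitted to a 3-parameter logistic model to estimate EC50 and Emax. Cells had been exposed to ligand for 60 min with LiCl, and lysate IP1 determined by HTRF, with normalization to 100 μM ATP.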

The target of a further experiment is T2, hCTR N288A (Homo sapiens, UniProt P30988, N288A).
T2 construct: expressed in transfected cells
T2 sequence (P30988 25-474 N288A): T1 sequence (P30988 25-474 C289A) with N264A, A265C
The experiment in a line: Heterologous whole cell competition binding. The following applies: heterologous competition of 125I-sCT(8-32), whole cells, mean ± S.E.M., SEM. Put shortly:
(§1)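 Whole cells expressing each receptor mutant were incubated overnight with radioligand and competitor, after which unbound ligand was removed and bound radioactivity counted on a gamma counter. Inhibition values were corrected for radioligand occupancy by the Cheng-Prusoff equation and reported as pKi.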

In a further experiment the target is T3, hCTR L291A (Homo sapiens, UniProt P30988, L291A).
T3 construct: expressed in transfected cells
T3 sequence (P30988 25-474 L291A): T1 sequence (P30988 25-474 C289A) with A265C, L267A
Kind of experiment: Heterologous whole cell competition binding. The settings on record: heterologous competition of 125I-sCT(8-32), whole cells, mean ± S.E.M., SEM. Put shortly: as §1

A further experiment concerns the target T4, hCTR Y372A (Homo sapiens, UniProt P30988, Y372A).
T4 construct: c-Myc (N); expressed in transfected cells
T4 sequence (P30988 25-474 Y372A): T1 sequence (P30988 25-474 C289A) with A265C, Y348A
The experiment in a line: Heterologous whole cell competition binding. The following applies: heterologous competition of 125I-sCT(8-32), whole cells, mean ± S.E.M., SEM. In outline:
as §1

The target in the next experiment is T5, hCTR I279A (Homo sapiens, UniProt P30988, I279A).
T5 construct: expressed in transfected cells
T5 sequence (P30988 25-474 I279A): T1 sequence (P30988 25-474 C289A) with I255A, A265C
Kind of experiment: Heterologous whole cell competition binding. The settings on record: heterologous competition of 125I-sCT(8-32), whole cells, mean ± S.E.M., SEM. Put shortly:
as §1

In general, Emax refers to the maximal effect, on the per cent scale that the assay sets. On hCTR C289A, `CC(C)C[C@H](NC(=O)[C@H](CCCCN)NC(=O)CNC(=O)[C@H](CC(C)C)NC(=O)[C@@H](NC(=O)[C@@H]1CSSC[C@H](N)C(=O)N[C@@H](CO)C(=O)N[C@@H](CC(N)=O)C(=O)N[C@@H](CC(C)C)C(=O)N[C@@H](CO)C(=O)N[C@@H]([C@@H](C)O)C(=O)N1)C(C)C)C(=O)N[C@@H](CO)C(=O)N[C@@H](CCC(N)=O)C(=O)N[C@@H](CCC(=O)O)C(=O)N[C@@H](CC(C)C)C(=O)N[C@@H](Cc1c[nH]cn1)C(=O)N[C@@H](CCCCN)C(=O)N[C@@H](CC(C)C)C(=O)N[C@@H](CCC(N)=O)C(=O)N[C@H](C(=O)N[C@@H](Cc1ccc(O)cc1)C(=O)N1CCC[C@H]1C(=O)N[C@@H](CCCNC(=N)N)C(=O)N[C@H](C(=O)N[C@@H](CC(N)=O)C(=O)N[C@H](C(=O)NCC(=O)N[C@@H](CO)C(=O)NCC(=O)N[C@H](C(=O)N1CCC[C@H]1C(N)=O)[C@@H](C)O)[C@@H](C)O)[C@@H](C)O)[C@@H](C)O` [sCT] yielded an Emax of 42 ± 4%.

Usually Ki stands for the equilibrium dissociation constant of an inhibitor or competing ligand from its target. Higher therefore signals weaker binding. As to `CSCC[C@H](NC(=O)CNC(=O)[C@H](CO)NC(=O)[C@H](Cc1ccccc1)NC(=O)[C@H](CCCNC(=N)N)NC(=O)[C@H](Cc1c[nH]cn1)NC(=O)[C@H](Cc1ccccc1)NC(=O)[C@H](CC(N)=O)NC(=O)[C@H](CC(N)=O)NC(=O)[C@H](CC(C)C)NC(=O)[C@H](CC(N)=O)NC(=O)[C@H](CCCNC(=N)N)NC(=O)[C@H](Cc1c[nH]c2ccccc12)NC(=O)[C@H](Cc1ccc(O)cc1)NC(=O)[C@H](C)NC(=O)[C@H](CO)NC(=O)[C@H](CC(C)C)NC(=O)[C@@H](NC(=O)[C@@H]1CSSC[C@H](N)C(=O)N[C@@H](CO)C(=O)N[C@@H](CC(N)=O)C(=O)N[C@@H](CC(C)C)C(=O)N[C@@H](CO)C(=O)N[C@@H]([C@@H](C)O)C(=O)N1)C(C)C)C(=O)NCC(=O)N[C@@H](Cc1ccccc1)C(=O)NCC(=O)N1CCC[C@H]1C(=O)N[C@@H](CCC(=O)O)C(=O)N[C@H](C(=O)N1CCC[C@H]1C(N)=O)[C@@H](C)O` [pCT] (H-CSNLSTCVLSAYWRNLNNFHRFSGMGFGPETP-NH2; disulfide 1-7), the inhibition constant (Ki) is 9.33 nM on hCTR N288A, 67.6 nM at hCTR L291A, 28.2 nM on hCTR Y372A and 14.8 nM on hCTR I279A.
